Values joined by “and” are separate entries in the source; they are usually repeats but may differ in a detail not shown here. Equal values may be shown once. Read-outs that look alike come from different tables or passages of the source.

Holding throughout (type): biochemical
The target of assay [1] is protease (Bacillus subtilis, UniProt P04189). Description: Protease activity of B. subtilis Alkaline Protease composition after oxidizing agent treatment (Food Chemicals Codex method).
For assay [2], the system named is amylase. Description: Amylase activity of B. subtilis Alkaline Protease composition after oxidizing agent treatment (Food Chemicals Codex method). Particulars: for Amylase % loss: 75 min.
Assay [3] deals with protease (both neutral and alkaline). Description: Protease retention in dry enzyme mixture from Bacillus subtilis culture filtrate, spray dried product. The note with it: 0.35% NaOCl based on weight of dry mixture; pH 6.2-6.6; final spray dried material vs starting material. As for the experimental part:
(§1) Twenty five pounds of an unstandarized, dry enzyme mixture, obtained by drying the clarified culture filtrate from the aerobic fermentation of Bacillus subtilis in an aqueous nutrient culture medium containing assimilable C, N and mineral salts, and which was determined to contain neutral protease, alkaline protease and amylase, is admixed with one hundred pounds of water at 70°-85° F. and agitated to facilitate solution. The solution is adjusted to pH 6.2-6.6 by slow addition of 20% aqueous NaOH solution. Then, 1.67 pounds of Clorox® (containing 5.25% NaOCl) is slowly admixed with the foregoing enzyme solution to thereby result in the addition of 0.0877 pounds or 0.35% NaOCl based on the weight of the dry mixture.

Assay [4] relates to amylase. Description: Amylase inactivation in dry enzyme mixture from Bacillus subtilis culture filtrate, spray dried product. The note with it: 0.35% NaOCl based on weight of dry mixture, pH 6.2-6.6. As for the experimental part:
as §1

The target in assay [5] is T1, amylase (Sus scrofa, UniProt P00690).
T1 construct: purchased Cudahy Co; host or cells: pancreas (pancreatin)
T1 sequence (P00690 16-511): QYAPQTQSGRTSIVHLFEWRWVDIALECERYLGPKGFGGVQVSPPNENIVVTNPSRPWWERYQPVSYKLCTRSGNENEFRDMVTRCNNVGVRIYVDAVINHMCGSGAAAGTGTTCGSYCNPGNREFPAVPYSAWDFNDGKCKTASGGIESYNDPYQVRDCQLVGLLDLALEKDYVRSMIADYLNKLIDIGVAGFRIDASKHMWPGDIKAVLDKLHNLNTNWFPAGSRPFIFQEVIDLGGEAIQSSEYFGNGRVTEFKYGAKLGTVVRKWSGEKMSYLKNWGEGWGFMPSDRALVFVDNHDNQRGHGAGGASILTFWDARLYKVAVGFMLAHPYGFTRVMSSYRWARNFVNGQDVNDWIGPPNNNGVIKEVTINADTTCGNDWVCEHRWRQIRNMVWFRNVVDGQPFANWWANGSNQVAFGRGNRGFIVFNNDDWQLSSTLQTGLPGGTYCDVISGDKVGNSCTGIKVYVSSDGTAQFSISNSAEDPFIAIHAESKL
Description: Amylase activity of pancreatin after hypochlorite treatment. As for the experimental part: (§2) Pancreatin obtained from the Cudahy Co. was dissolved in isotonic salt solution (0.9% NaCl) to a concentration of 3.13 g. in 25 g. of solution. The solution pH was 6.5. Sodium hypochlorite solution (Clorox®) was added and the increments equalized by the addition of isotonic salt solution. The isotonic salt solution is used to avoid potency degradation of the solution upon standing. A similar lack of effect was noted when using an enzyme solution having a pH of 5.8 rather than 6.5. The enzyme mixture was treated for 11/4 hr. at room temperature and then assayed for protease and amylase activity. As in the prior Examples, the percent sodium hypochlorite is based on the solids content of the enzyme solution.
(§3) ^1, ^2 Amylase and protease activity were assayed by the same

Assay [6] concerns protease. Description: Protease activity of pancreatin after hypochlorite treatment. More on the design: Protease Activity: unit not given beside the values. The note with it: for Protease Activity: pH 6.5, 0% control 27,300; for Protease % loss: pH 6.5, 75 min. The procedure: as §2, §3
[7] abbreviates: Table II, treated solution, 0.3% based on weight of enzyme composition, final pH 6.5.
[8] abbreviates: Table III, spray-dried product, 0.3% based on weight of enzyme composition.

Sequence of protease (Bacillus subtilis, UniProt P04189) (P04189 107-381): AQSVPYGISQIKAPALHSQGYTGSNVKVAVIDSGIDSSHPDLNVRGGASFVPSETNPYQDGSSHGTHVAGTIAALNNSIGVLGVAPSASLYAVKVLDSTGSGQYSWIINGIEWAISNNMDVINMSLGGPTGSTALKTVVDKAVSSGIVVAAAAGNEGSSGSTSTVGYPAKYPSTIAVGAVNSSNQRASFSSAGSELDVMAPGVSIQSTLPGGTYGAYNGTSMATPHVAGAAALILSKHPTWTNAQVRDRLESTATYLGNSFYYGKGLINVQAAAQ

`OO` [hydrogen peroxide, reference compound]: the “Protease Activity” value in assay [1] was 157,512; in assay [1] (pH 6.4), 29,579. For the same molecule, the “Amylase Activity” value in assay [2] was 1250; in assay [2] (pH 6.4), 236. Also, in assay [2], the “selective inactivation of amylase compared with hypochlorite (in words)” value is recorded as “substantially less effective in selectively inactivating amylase”.

As for sodium chlorite, the Protease % loss in assay [1] (b. subtilis alkaline protease, pH 6.3, 75 min, 75 min) is 0% and 1% and 8%. Moreover, in assay [1] (pH 6.3), the Protease Activity is 40,800 and 39,900 and 37,200. For the same molecule, in assay [2] (b. subtilis amylase, pH 6.3, 75 min), the Amylase % loss is 99%.

For the molecule `[Na+].[O-][Cl+2]([O-])[O-]` [sodium chlorate, reference compound], the “effect on protease activity” value in assay [1] was “Neither of these salts had any effect”. Moreover, the “effect on amylase activity” value in assay [2] is “Neither of these salts had any effect”.

`OCl` [sodium hypochlorite]: the Protease Activity in assay [1] (0.125% ion salt, pH 6.3, 0% control 25,900) is 25,100; in assay [1] (0.25% ion salt, pH 6.3, 0% control 25,900), 25,900; in assay [1] (0.40% ion salt, pH 6.3, 0% control 25,900) it was 24,600; in assay [1] (setting [7]), 27,365; in assay [1] (setting [8]) it was 147,650; in assay [6] (1.8% on solids content), 28,400. Moreover, the “Protease Activity” value in assay [6] (3.6% on solids content) is on record as 24,800; in assay [6] (7.2% on solids content), 19,100; in assay [6] (10.8% on solids content), 11,200. Moreover, in assay [1] (1.25 h, 0.125% ion salt, pH 6.3, read-out: Protease % loss), the inhibition at 0.125 % was determined as 3%. For the same molecule, in assay [1] (1.25 h, 0.25% ion salt, pH 6.3, read-out: Protease % loss), the inhibition at 0.25 % amounted to 0%. For the same molecule, in assay [1] (1.25 h, 0.40% ion salt, pH 6.3, read-out: Protease % loss), the inhibition at 0.4 % was found to be 5%. The “protease retained in the final product” value in assay [3] was “greater than 90%”. Also, in assay [4], the “amylase destruction (in words)” value was “immediately destroys the amylase”. Also, in assay [4] (final spray dried material vs starting material), the amylase inactivated result was “about 98%”. Moreover, the “Amylase Activity” value in assay [5] (1.8% on solids content, pH 6.5, room temperature, 0% control 1075) stood at 467; in assay [5] (3.6% on solids content, pH 6.5, 0% control 1075) it was 31; in assay [5] (7.2% on solids content, pH 6.5, 0% control 1075) it was 3; in assay [5] (10.8% on solids content, pH 6.5, 0% control 1075) it was 0; in assay [2] (0.125% ion salt, pH 6.3, 0% control 583) it was 242; in assay [2] (0.25% ion salt, pH 6.3, 0% control 583) it was 16. In addition, the Amylase Activity came to 11 in assay [2] (0.40% ion salt, pH 6.3, 0% control 583); 3 in assay [2] (setting [7]); 15 in assay [2] (setting [8]). Also, the inhibition at 1.8 % in assay [5] (1.25 h, 1.8% on solids content, pH 6.5, read-out: Amylase % loss) turned out to be 57%. For the same molecule, in assay [5] (1.25 h, 3.6% on solids content, pH 6.5, read-out: Amylase % loss), the inhibition at 3.6 % was found to be 97%. For the same molecule, the inhibition at 7.2 % in assay [5] (1.25 h, 7.2% on solids content, pH 6.5, read-out: Amylase % loss) worked out at 100%. Further, the inhibition at 10.8 % in assay [5] (1.25 h, 10.8% on solids content, pH 6.5, read-out: Amylase % loss) was 100%. Further, the Protease % loss in assay [6] (1.8% on solids content) came out at 0%; in assay [6] (3.6% on solids content) it was 9%; in assay [6] (7.2% on solids content), 30%; in assay [6] (10.8% on solids content) it was 59%. Besides, the Amylase % loss in assay [2] (0.125% ion salt, pH 6.3) was determined as 55%; in assay [2] (0.25% ion salt, pH 6.3), 97%; in assay [2] (0.40% ion salt, pH 6.3) it was 98%.

In the case of `[O-][Cl+3]([O-])([O-])O` [sodium perchlorate, reference compound], the “effect on protease activity” value in assay [1] was “Neither of these salts had any effect”. For the same molecule, in assay [2], the “effect on amylase activity” value is “Neither of these salts had any effect”.

For the origin of these results see patent US4086139A, “Differential inactivation of amylase in amylase-protease mixtures” (GB Fermentation Industries Inc., priority 1976, dated 1978).
